What follows are molecules tested against MAPK14 (UniProt Q16539) (assay: p38 alpha Inhibition). Conditions: not given.
Chain of MAPK14 (Q16539 whole entry, looked up): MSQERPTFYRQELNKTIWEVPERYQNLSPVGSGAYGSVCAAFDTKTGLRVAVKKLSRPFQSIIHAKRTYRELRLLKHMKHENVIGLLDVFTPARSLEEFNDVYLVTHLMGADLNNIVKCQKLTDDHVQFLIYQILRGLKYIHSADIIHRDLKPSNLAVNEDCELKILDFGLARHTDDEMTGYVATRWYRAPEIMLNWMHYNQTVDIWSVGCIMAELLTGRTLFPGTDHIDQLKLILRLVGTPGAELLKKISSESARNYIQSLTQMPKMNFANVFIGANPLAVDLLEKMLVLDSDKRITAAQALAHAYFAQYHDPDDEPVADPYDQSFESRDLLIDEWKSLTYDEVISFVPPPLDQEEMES

SMILES | IC50 [nM]
COc1cccc(Nc2nc(-c3ccccc3)nc3ccccc23)c1 | 578
c1ccc(-c2nc(NCc3ccncc3)c3ccccc3n2)cc1 | 1200
Clc1ccccc1-c1nc(Nc2ccncc2)c2ccccc2n1 | 170
Fc1ccccc1-c1nc(Nc2ccncc2)c2ccccc2n1 | 114
Nc1ccc2nc(-c3ccccc3F)nc(Nc3ccncc3)c2c1 | 168

The next lines start with the values.

IC50 [nM] | SMILES
345 | Cc1ccccc1-c1nc(Nc2ccncc2)c2ccccc2n1
439 | Fc1ccc(-c2nc(Nc3ccncc3)c3ccccc3n2)cc1
457 | c1ccc(-c2nc(Nc3ccncc3)c3ccccc3n2)cc1
285 | Brc1ccccc1-c1nc(Nc2ccncc2)c2ccccc2n1

Same assay, conditions: concentration not given here

SMILES | inhibition [%]
COc1cccc(Nc2nc(-c3ccccc3)nc3ccccc23)c1 | 95
Fc1cccc(F)c1-c1nc(Nc2ccncc2)c2ccccc2n1 | 97
COc1ccc(-c2nc(Nc3ccncc3)c3ccccc3n2)cc1 | 5
Clc1cccc(Cl)c1-c1nc(Nc2ccncc2)c2ccccc2n1 | 85
c1ccc(Nc2nc(-c3ccccc3)nc3ccccc23)cc1 | 45
Fc1cccc(-c2nc(Nc3ccncc3)c3ccccc3n2)c1 | 68
c1ccc(-c2nc(NCc3ccncc3)c3ccccc3n2)cc1 | 64
Clc1ccccc1-c1nc(Nc2ccncc2)c2ccccc2n1 | 100
Fc1ccc(F)c(CNc2nc(-c3ccccc3)nc3ccccc23)c1 | 63
Nc1ccc2c(Nc3ccncc3)nc(-c3ccccc3F)nc2c1 | 94
Oc1ccccc1Nc1nc(-c2ccccc2)nc2ccccc12 | 28
COc1ccc(CNc2ccc3nc(-c4ccccc4F)nc(Nc4ccncc4)c3c2)cc1 | 96
COc1ccc(N(c2ccncc2)c2nc(-c3ccccc3)nc3ccccc23)cc1 | 47
c1ccc(-c2nc(Nc3ncccn3)c3ccccc3n2)cc1 | 3
Fc1ccccc1-c1nc(Nc2ccncc2)c2ccccc2n1 | 99
c1ccc(-c2nc(NCCc3ccccn3)c3ccccc3n2)cc1 | 16
c1ccc(-c2nc(NCc3cccnc3)c3ccccc3n2)cc1 | 54
Oc1cccc(Nc2nc(-c3ccccc3)nc3ccccc23)c1 | 19
Clc1ccc(-c2nc(NCc3ccncc3)c3ccccc3n2)cc1 | 51

Further lines, results first:

inhibition [%] | SMILES
99 | Cc1ccccc1-c1nc(Nc2ccncc2)c2ccccc2n1
16 | COc1ccc(Nc2nc(-c3ccccc3)nc3ccccc23)cc1
92 | Fc1ccc(-c2nc(Nc3ccncc3)c3ccccc3n2)cc1
97 | c1ccc(-c2nc(Nc3ccncn3)c3ccccc3n2)cc1
37 | Clc1cccc(-c2nc(NCc3ccccc3)c3ccccc3n2)c1
91 | O=[N+]([O-])c1ccc2nc(-c3ccccc3F)nc(Nc3ccncc3)c2c1
69 | CC(C)N(c1ccncc1)c1nc(-c2ccccc2)nc2ccccc12
10 | CCC(C)c1ccc(Nc2nc(-c3ccccc3)nc3ccccc23)cc1 (stereo not drawn)
96 | COc1cccc(CNc2ccc3nc(-c4ccccc4F)nc(Nc4ccncc4)c3c2)c1
25 | CN(C)c1ccc(CNc2nc(-c3ccccc3)nc3ccccc23)cc1
70 | c1ccc(-c2nc(Nc3ccc4[nH]ccc4c3)c3ccccc3n2)cc1
97 | Fc1ccccc1-c1nc(Nc2ccncc2)c2cccnc2n1
97 | COc1cc2nc(-c3ccccc3Cl)nc(Nc3ccncc3)c2cc1OC
99 | Brc1ccccc1-c1nc(Nc2ccncc2)c2ccccc2n1
34 | OCCc1ccc(Nc2nc(-c3ccccc3)nc3ccccc23)cc1
63 | Oc1ccc(Nc2nc(-c3ccccc3)nc3ccccc23)cc1
45 | c1ccc(-c2nc(Nc3cccnc3)c3ccccc3n2)cc1
37 | COc1ccccc1Nc1nc(-c2ccccc2)nc2ccccc12
72 | c1ccc(-c2nc(Nc3cccc4[nH]ccc34)c3ccccc3n2)cc1
13 | N#Cc1cccc(Nc2nc(-c3ccccc3)nc3ccccc23)c1

From the Kinase Knowledgebase extract (Sharma et al. 2016)
